Reference: patent US20160030416A1, “METHODS OF TREATING B2-BRADYKININ RECEPTOR MEDIATED ANGIOEDEMA” (SHIRE HUMAN GENETIC THERAPIES, INC., priority 2013, published 2016)
Converted amounts (≈) assume the structure as drawn.

Columns and labels:
[1] = target: T1, human B2-bradykinin receptor (Homo sapiens, UniProt P30411); test: Calcium mobilization assay in human fibroblast (HF15) cells; assay type: cell-based; design: endogenous in cells; host or cells: HF15 human fibroblasts; details: 25 minutes pre-incubation at 25° C., read-out: IC50, inhibition of bradykinin-induced calcium mobilization
T1 sequence (P30411 1-391): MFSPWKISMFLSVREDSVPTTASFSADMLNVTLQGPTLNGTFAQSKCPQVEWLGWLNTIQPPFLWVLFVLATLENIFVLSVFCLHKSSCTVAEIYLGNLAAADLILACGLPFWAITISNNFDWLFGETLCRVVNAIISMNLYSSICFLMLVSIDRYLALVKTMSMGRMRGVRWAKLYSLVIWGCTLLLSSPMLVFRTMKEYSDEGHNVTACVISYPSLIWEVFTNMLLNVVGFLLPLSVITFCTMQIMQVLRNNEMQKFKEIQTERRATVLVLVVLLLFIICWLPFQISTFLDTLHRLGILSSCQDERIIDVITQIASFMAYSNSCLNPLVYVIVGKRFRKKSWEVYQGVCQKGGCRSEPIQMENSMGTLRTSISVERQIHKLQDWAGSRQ
Procedure: CFMQ was formulated as a 5 nM stock solution in 100% DMSO and serially diluted to 0.04, 0.12, 0.37, 1.11, 3.33, 10 and 30 nM. Human fibroblast (HF15) cells, which express the human B2R were loaded with 100 μL calcium dye solution containing 2.5 mM probenicide and were then pre-incubated with CFMQ for 25 minutes at 25° C. The inhibition effect of CFMQ on bradykinin-mediated calcium mobilization was tested in this system by emission of fluorescence signals, using the height of the resulting peak over the baseline value (relative fluorescence units [RFU] max-min). The percent inhibition for each concentration was used for curve fit and IC50 calculation.

[2] = Pharmacokinetics, single oral gavage, Yucatan mini-pig; assay type: in vivo, female Yucatan Miniature Swine; details: PO 10 mg/kg
Procedure: CFMQ (HGT3711) was administered to female Yucatan Miniature Swine (mini-pig; n=3) by a single oral gavage at 10 mg/kg (concentration 2 mg/mL) at a dose volume of […]. This study utilized the spray-dried dispersion (SDD) (50; 50 with polymer; HPMCAS) formulation of CFMQ (HGT3711) (see below). Blood samples were taken via jugular or other suitable vein puncture prior to administration and at 0.083 (5 min), 0.25 (15 min), 0.50 (30 min), 1, 2, 4, 8, 12 and 24 hours post dose. Plasma concentrations of CFMQ (HGT3711) were determined by LC-MS/MS.

[3] = test system: BK-induced human umbilical vein contractions; test: cells; details: Homo sapiens, 0.5 h; 30 minute incubation, BK-induced contractions; read-out: EC50, umbilical vein assay
Procedure: The inhibition effect of CFMQ on bradykinin induced […] was examined in an ex vivo functional assay of human umbilical vein contraction, which is considered a gold standard for bradykinin activity measurements. […] Firazyr®). Following a 30 minute incubation, BK-induced vein contractions were initiated in a cumulative manner (final concentration of 10 μM), followed by maximal calibration contraction induction by 10 μM serotonin. The tension increase for each dose response was calculated in relation to the (maximal) response towards serotonin, graphed as a dose-response curve and used to calculate an effective concentration at 50% (EC50) value (FIG. 6)

[4] = Plasma kinetics, intravenous, beagle dogs; assay type: in vivo, female beagle dogs; details: IV 1 mg/kg
Procedure: CFMQ (HGT3711) was administered to fasted female beagle dogs by a single intravenous injection at 1.0 mg/kg, formulated in 100% PEG200 (Table 10). Blood samples were taken via jugular vein puncture prior to administration and at 0.083 (5 min), 0.25 (15 min), 0.50 (30 min), 1, 4, 8 and 24 hours post dose. Plasma concentrations of CFMQ (HGT3711) were determined by LC-MS/MS and concentrations below the limit of quantitation (1.0 ng/mL) were assigned a value of zero for pharmacokinetic analysis. Nominal dosing concentrations were used in all calculations.

[5] = Solubility of CFMQ in vehicles; assay type: physicochemical
Procedure: The physicochemical properties of 1-((4-Chloro-3-(((4-(4-fluoro-1H-pyrazol-1-yl)-2-methylquinolin-8-yl)oxy)methyl)-6-methylpyridin-2-yl)methyl)-2-oxo-1,2-dihydropyridine-3-carbonitrile (CFMQ) were determined using standard methods. CFMQ was a free base with a molecular weight of 514.9 Da and was a nonhygroscopic, crystalline powder with a melting point of about 214° C.

[6] = Extrapolation of human oral dose by allometric scaling and pharmacokinetic simulation; details: human equivalent dose of 0.8 mg/kg
Procedure: A pharmacokinetic extrapolation for a human oral dose was performed using allometric scaling of clearance and volume of distribution. The human pharmacokinetic values were extrapolated from in vivo mouse, rat, dog and monkey pharmacokinetic studies. […] This model was based on the assumption that all of the clearance pathways in the human were captured in the pre-clinical species.

[7] = female, Yucatan, minipig, plasma
[8] = female, beagle, dog, plasma, extrapolated to t = 0

IC50 [1]: 2.97 nM
clinical observations ([2]; mini-pig): no abnormal clinical observations
AUC(0-inf) [2, 7]: 11100 ng·h/mL
AUC(0-t) [2, 7]: 10600 ng·h/mL
half-life [2, 7]: 57 h
concentration at 4 hr ([2]; female, Yucatan, pig (miniature swine), plasma, 4.0 hr, read-out: Average Concentration of HGT3711): 1150 ng/mL
concentration at 8 hr ([2]; female, Yucatan, pig (miniature swine), plasma, 8.0 hr, read-out: Average Concentration of HGT3711): 284 ng/mL
concentration at 12 hr ([2]; female, Yucatan, pig (miniature swine), plasma, 12 hr, read-out: Average Concentration of HGT3711): 112 ng/mL
concentration at 24 hr ([2]; female, Yucatan, pig (miniature swine), plasma, 24 hr, read-out: Average Concentration of HGT3711): 14.2 ng/mL
concentration at 0 hr ([2]; female, Yucatan, pig (minipig), plasma, 0 hr, read-out: Average Concentration of HGT3711): 0 ng/mL
concentration at 0.25 hr ([2]; female, Yucatan, pig (minipig), plasma, 0.25 hr, read-out: Average Concentration of HGT3711): 80 ng/mL
concentration at 0.5 hr ([2]; female, Yucatan, pig (minipig), plasma, 0.5 hr, read-out: Average Concentration of HGT3711): 596 ng/mL
concentration at 1 hr ([2]; female, Yucatan, pig (minipig), plasma, 1.0 hr, read-out: Average Concentration of HGT3711): 1560 ng/mL
concentration at 2 hr ([2]; female, Yucatan, pig (minipig), plasma, 2.0 hr, read-out: Average Concentration of HGT3711): 2060 ng/mL
EC50 [3]: 7.3 nM
clearance as % of liver blood flow in dog (1.85 L/hr/kg) [4]: approximately 14%
AUC(0-inf) ([4]; female, beagle, dog, plasma): 5270 ng·h/mL
AUC(0-t) ([4]; female, beagle, dog, plasma): 5160 ng·h/mL
clearance ([4]; female, beagle, dog, plasma): 4.17 mL/min/kg
half-life ([4]; female, beagle, dog, plasma): 2.69 h
concentration at 0 hr ([4]; female, beagle, dog, plasma, 0 hr, read-out: Average Concentration of HGT3711): 0 ng/mL
concentration at 0.083 hr ([4]; female, beagle, dog, plasma, 0.083 hr, read-out: Average Concentration of HGT3711): 1840 ng/mL
concentration at 0.25 hr ([4]; female, beagle, dog, plasma, 0.25 hr, read-out: Average Concentration of HGT3711): 1320 ng/mL
concentration at 0.5 hr ([4]; female, beagle, dog, plasma, 0.50 hr, read-out: Average Concentration of HGT3711): 1070 ng/mL
concentration at 1 hr ([4]; female, beagle, dog, plasma, 1.0 hr, read-out: Average Concentration of HGT3711): 717 ng/mL
concentration at 4 hr ([4]; female, beagle, dog, plasma, 4.0 hr, read-out: Average Concentration of HGT3711): 377 ng/mL
concentration at 8 hr ([4]; female, beagle, dog, plasma, 8.0 hr, read-out: Average Concentration of HGT3711): 180 ng/mL
C0 [4, 8]: 2180 ng/mL
Tmax [4, 8]: 0 h
Vd ([4]; female, beagle, dog, plasma, read-out: Vss): 0.75 L/kg
solubility ([5]; 0.1 N HCl, simulated gastric fluid, HCl 0.1N, pH 1.3): 320 µg/mL (≈ 621 µM)
solubility ([5]; Labrasol (glyceryl and polyethylene glycol esters), aqueous with cosolvent or surfactant or cyclodextrin): 1430 µg/mL (≈ 2780 µM)
solubility ([5]; NaOH 0.1N, pH 12.8, aqueous buffer): < 10 µg/mL
solubility ([5]; PEG400 (polyethylene glycol 400), organic solvent or mixture): 2370 µg/mL (≈ 4600 µM)
solubility ([5]; Tween 20 (polyoxyethylene (20) sorbitan monolaurate), aqueous with cosolvent or surfactant or cyclodextrin): 870 µg/mL (≈ 1690 µM)
solubility ([5]; Tween 80 (polyoxyethylene (80) sorbitan monolaurate), aqueous with cosolvent or surfactant or cyclodextrin): 3500 µg/mL (≈ 6800 µM)
solubility ([5]; citrate/NaOH buffer, aqueous buffer, Citrate/NaOH pH 2): 20 µg/mL (≈ 38.8 µM)
solubility ([5]; citrate/NaOH buffer, aqueous buffer, Citrate/NaOH pH 5): < 10 µg/mL
solubility ([5]; ethanol, organic solvent or mixture): 170 µg/mL (≈ 330 µM)
solubility ([5]; glycerol, organic solvent or mixture): 10 µg/mL (≈ 19.4 µM)
solubility ([5]; olive oil, oil or lipid): < 10 µg/mL
solubility ([5]; organic solvent or mixture, Acetic acid, glacial): 19900 µg/mL (≈ 38600 µM)
solubility ([5]; phosphate buffer, pH 7, aqueous buffer): < 10 µg/mL
solubility ([5]; propylene glycol, organic solvent or mixture): 100 µg/mL (≈ 194 µM)
solubility ([5]; water): < 10 µg/mL
time plasma levels stay above the predicted efficacious levels ([6]; bioavailability 25%): greater than 5 hours
time plasma levels stay above the predicted efficacious levels ([6]; bioavailability 50%): > 10 h
time plasma levels stay above the predicted efficacious levels ([6]; bioavailability 75%): > 12 h
SMILES: Cc1cc(Cl)c(COc2cccc3c(-n4cc(F)cn4)cc(C)nc23)c(Cn2cccc(C#N)c2=O)n1 [CFMQ, 1-((4-Chloro-3-(((4-(4-fluoro-1H-pyrazol-1-yl)-2-methylquinolin-8-yl)oxy)methyl)-6-methylpyridin-2-yl)methyl)-2-oxo-1,2-dihydropyridine-3-carbonitrile]
